In general, IC50 refers to the concentration that inhibits the measured activity by half.

Experimental findings from patent US20240335395A1, “COMPOSITIONS AND METHODS FOR PREVENTING AND/OR TREATING DISEASE ASSOCIATED WITH IL-23 EXPRESSION” (ALLSPIM, priority 2021, published 2024) are described below.

The subject of assay [1] is IL-23. In words: IL-23 production (ELISA of supernatant) in LPS-stimulated THP-1 cell culture, Examples 1 and 8. It is filed as cell-based, human. How it is done: The THP-1 cell line (TIB-202) was obtained from the American Type Culture Collection (ATCC, USA), grown in RPMI 1640 culture medium (Gibco) supplemented with 10% fetal bovine serum (Gibco, UK), 50 U/mL penicillin-streptomycin (Gibco), and 0.05 mM 2-Mercaptoethanol (Gibco). Cultured cells were plated into culture plates in appropriate volumes with a cell density of 500,000 cells/mL.
PCR was performed in duplicate using SYBR Green qPCR master mix (Takara Biomedical Technology Co., Ltd, Dalian, China) on an ABI 7500 Real-Time PCR System (Thermo, USA). The cycling program was as follows: denaturation at 95° C. for 15 s, 40 cycles of 95° C. for 15 s and extension at 60° C. for 60 s, followed by melt curve generation. The ΔΔCT method was used to quantify relative mRNA levels as described in User Bulletin #2 for the ABI PRISM 7700 Sequence Detection System (Applied Biosystems, 2001). The primer sequences used in this study are 5′-[…]-3′ (forward), 5′-[…]-3′ (reverse) for human IL-23p19 (SEQ ID NOs: 4 and 5, respectively); and 5′-ACAGTCCATGCCATCACTG-3′ (forward) and 5′-AGTAGAGGCAGGGATGATG-3′ for human GAPDH as a reference (SEQ ID NOs: 6 and 7, respectively). 24 hours after culture and treatments, supernatants were collected and IL-23 levels measured using the IL-23 Human Uncoated ELISA Kit (ThermoFisher Scientific Inc., USA) according to the manufacturer's instructions. A Varioskan LUX microplate reader (Thermo Fisher, USA) was used for the assay and 4-parameter logistic regression was used for data analysis. Two duplicates per sample were performed and results were averaged.
The anti-IL-23 activity of 2,4-D was compared with the commercially prescribed nonsteroidal anti-inflammatory drugs (NSAIDs:[…], Ibuprofen, and Aspirin) in the LPS-stimulated THP-1 cell culture system described above (Example 1)).
A general note: An ELISA detects its analyte on a solid surface through an enzyme-linked reagent.

In another assay the test system is IL-1ß. Put plainly: MSU-induced IL-1ß in knee joint tissue (multiplex microassay). It is filed as in vivo, mouse. To be noted: 2,4-D 100 mg/kg, CLC 1 mg/kg, DEX 0.5 mg/kg. How it is done:
(§1) Mice (six per group) were treated with 2,4-D (100 mg/kg or 20 mg/kg, i.p.), CLC (1 mg/kg or 0.2 mg/kg, i.p.), DEX (0.5 mg/kg or 0.1 mg/kg, i.p.), or vehicle (20% polyoxyethylenesorbitan monooleate (Tween 80) plus PBS) 30 min before intra-articular stimulus with MSU (100 μg/10 μL, i.a.). Six mice with intra-articular injection with PBS alone served as a negative control.
(§2) Induction of MSU-Induced Knee Joint Inflammation. Male ICR (CD-1) mice (35-45 g, 10-12 weeks) were purchased from VitalRiver Inc (Beijing, China) and were kept in an animal care facility under controlled temperature of 21±1° C., humidity, and on a light/dark cycle, with ad libitum access to water and standard laboratory chow diet. Animal care and handling procedures were approved by the Animal Ethics Committee of GZUCM (Guangzhou University of Chinese Medicine). All efforts were made to minimize animal suffering and to reduce the number of animals used. Joint inflammation was induced by the intra-articular (i.a.) administration of MSU (200 μg/20 μl) into the right and left knee joints of mice under inhaled 3% isoflurane anesthesia. Control animals received an injection (i.a.) of sterile PBS (20 μL).
(§3) Cytokine Measurement. Mice were anesthetized and sacrificed. Knee joints were collected and frozen in liquid nitrogen. Samples were then homogenized in 500 μl of buffer containing protease inhibitors, centrifuged (3600 rpm, 4° C., 15 min) and supernatants were used to determine Th1/Th2/Th17 cytokine levels using a multiplex microassay (Qantibody® mouse TH17 Array 1 kit, Cat. No.: QAM-TH17-1; RayBiotech, Norcross, GA). Results were expressed as picograms (pg) of cytokine/mg of tissue.
(§4) Statistical Analysis. […] For in vitro experiments, microassays were performed in quadruplicate. p<0.05 was considered significant (*p<0.05, **p<0.01, ***p<0.001).

A further assay has as its system TNF-alpha. In words: MSU-induced TNF-alpha in knee joint tissue (multiplex microassay). It is filed as in vivo, mouse. To be noted: 2,4-D 100 mg/kg, CLC 1 mg/kg, DEX 0.5 mg/kg. How it is done:
as §1, §2, §3, §4

The subject of assay [2] is MSU-induced knee joint edema. Put plainly: MSU-induced knee joint edema in mice. It is filed as in vivo, mouse. To be noted: 20 h; high dose i.p.: 2,4-D 100 mg/kg, CLC 1 mg/kg, DEX 0.5 mg/kg. How it is done:
(§5) 2,4-D, isolated and purified from Chloranthus spicatus (purity≥98%), was purchased from BOC Science (Shirley, NY). Colchicine (CLC) (purity≥96%) and dexamethasone (DEX) (purity≥98%) were purchased from Sigma. Mice (six per group) were treated with 2,4-D (100 mg/kg or 20 mg/kg, i.p.), CLC (1 mg/kg or 0.2 mg/kg, i.p.), DEX (0.5 mg/kg or 0.1 mg/kg, i.p.), or vehicle (20% polyoxyethylenesorbitan monooleate (Tween 80) plus PBS) 30 min before intra-articular stimulus with MSU (100 μg/10 μL, i.a.). Six mice with intra-articular injection with PBS alone served as a negative control.
Preparation of monosodium urate crystal (MSU). MSU crystals were prepared as described previously (Ruiz-Miyazawa et al., 2017). Briefly, 800 mg of monosodium urate was dissolved in 155 ml of boiling milli-Q water containing 2N NaOH. After pH adjustment to 8.9, the solution was cooled gradually by stirring at room temperature and crystallized overnight at 4° C. Crystals were collected, and centrifuged at 3,000×g for 2 min at 4° C. The crystals were evaporated and sterilized by heating at 180° C. for 2 h and stored in a sterile environment until use. The load of endotoxin present in the MSU crystals was determined using a ToxinSensor^TM Single Test Kit (GenScript).
as §2
Evaluation of Knee Joint Edema. Knee joint edema was determined with a caliper (Mitutoyo) before (zero time), and after the intra-articular injection with MSU at the times indicated. Knee joint edema was determined for each mouse by the difference between the time points indicated on figures and the zero time (Ruiz-Miyazawa et al, 2017). The edema value is represented as Amm/joint.
Statistical Analysis. Data were analyzed using GraphPad Prism statistical software (GraphPad Software, Inc., United States-500.288, version 5.0). Results are presented as means±SEM or SD of measurements made on 6 mice per group, with statistical significance determined by two-way ANOVA, comparing each group to the control (“Model”) group. For in vitro experiments, microassays were performed in quadruplicate. p<0.05 was considered significant (*p<0.05, **p<0.01, ***p<0.001).

The next assay concerns IL-10. In words: MSU-induced IL-10 in knee joint tissue (multiplex microassay). It is filed as in vivo, mouse. To be noted: CLC 1 mg/kg. How it is done:
as §1, §2, §3, §4

In assay [3] the test system is MSU-induced leukocyte recruitment. Put plainly: MSU-induced leukocyte recruitment to the synovial cavity of knee joint. It is filed as in vivo, mouse. To be noted: 20 h; 2,4-D 100 mg/kg, CLC 1 mg/kg, DEX 0.5 mg/kg. How it is done: as §5, §2
Histopathological Analysis. Knee joint was collected 20 h after MSU injection, fixed with 10% paraformaldehyde in PBS, and then decalcified for 10 days with EDTA and embedded in paraffin for histological analysis. […] Results are expressed as leukocytes infiltrate (cell/field) counted at the inflammatory foci within synovial cavity as indicative of synovitis. […]
Statistical Analysis. Data were analyzed using GraphPad Prism statistical software (GraphPad Software, Inc., United States-500.288, version 5.0). Results are presented as means±SEM or SD of measurements made on 6 mice per group, with statistical significance determined by two-way ANOVA, comparing each group to the control (“Model”) group. […]

The test system of a further assay is IL-6. In words: MSU-induced IL-6 in knee joint tissue (multiplex microassay). It is filed as in vivo, mouse. To be noted: 2,4-D 100 mg/kg, CLC 1 mg/kg, DEX 0.5 mg/kg. How it is done: as §1, §2, §3, §4
Assay [4] has as its system IL-23. Put plainly: IL-23 production (ELISA) in LPS-stimulated THP-1 cells, 2,4-D versus other chalcones, Example 2. Type of assay: cell-based, human. To be noted: LPS-stimulated THP-1, 24 h. From the text:
Molecules tested. Natural 2,4-D, isolated and purified from Chloranthus spicatus (purity HPLC≥98%, Cat. No.: 129742-43-2), was purchased from BOC Science (Shirley, NY). Synthetic 2,4-D (purity HPLC≥98%) was obtained from YIWEI Biotech (Shanghai, China). 2′-hydroxychalcone (2′-HC, purity HPLC≥98%, Cat. No.: 42224-53-3), 4-hydroxychlcone (4-HC, purity HPLC≥98%, Cat. No.: 20426-12-4), 2′,2-dihydroxychalcone (2′,2-DHC, purity HPLC≥98%, Cat. No.: IDF00045_ALDRICH), 2′,3-dihydroxychalcone (2′,3-DHC, purity HPLC≥98%, Cat No.: IDF00047_ALDRICH), 2′,4-dihydroxychalcone (2′,4-DHC, purity HPLC≥98%, Cat. No.: PH011685_ALDRICH), 2′,5′-dihydroxychalcone (2′,5′-DHC, purity HPLC≥98%, No.: IDF00046-1G), and 2′,4′,4-trihydroxychalcone (2′,4′4-THC, purity HPLC≥98%, No.: 38986_SIAL) were purchased from Sigma. 2′,4′-dihydroxychalcone (2′,4′-DHC, purity HPLC≥98%, Cat. No. AB151736) was purchased from abcr GmbH (Karlsruhe, Germany). Isobavachalcone (IBC), 4′-hydroxy-2′6′-dimethoxychalcone (HMC), 2-trifluoromethyl-2′-methoxychalcone (TFM) and Hydroxysafflor yellow A (HYA) were also tested.
Cell culture. THP-1 cells were cultured in RPMI 1640 culture medium (Gibco) supplemented with 10% fetal bovine serum (FBS; Gibco, UK.), 0.05 mM 2-mercaptoethanol, and 1% penicillin/streptomycin. Cells were used in exponential growth phase, with culture medium being replaced with fresh medium 1 day prior to the experiment. The following day, THP-1 cells were plated into 24-well culture plates with a cell density about 800,000 cells/mL and 2 mL per well. 10 ng/mL LPS was used to stimulate the THP-1 cells. RPMI 1640 medium containing 10% FBS and 1% P/S was used as a normal control (NC). 10 mM stock solutions of compounds in DMSO were diluted to 20 μM with complete culture medium just before use. Experiments were performed in quadruplicate.
Enzyme linked immune-sorbent assay (ELISA). At 24 hours, after centrifugation at 300 g for 10 min., 0.5 mL of supernatant was collected and stored at −80° C. until use. IL-23 levels were determined in culture supernatants as described in Example 1.

The mark [5] stands for this setting: LPS-stimulated THP-1, Example 8.

As for `COc1cc(O)c(OC)c(O)c1C(=O)/C=C/c1ccccc1` [(E) isomer, 2′,4′-dihydroxy-3′,6′-dimethoxychalcone], the “activity of (E) isomer relative to (Z) isomer” value with IL-23 [1] is recorded as 5 fold. In addition, the “inhibition of IL-23, (E) isomer compared with (Z) isomer” value in the assay with IL-23 [1] (LPS-stimulated THP-1 cell culture) is listed as “greater”.

With `CC(=O)Oc1ccccc1C(=O)O` [Aspirin, reference compound], the “change of IL-23 production/release in supernatant” value in the assay on IL-23 [1] (setting [5]) was “no significant change”.

With `COc1cc2c(c(OC)c1OC)-c1ccc(OC)c(=O)cc1[C@@H](NC(C)=O)CC2` [CLC, Colchicine], the “decrease of IL-1ß in knee joint tissue” value in the assay on IL-1ß is “no effect”. Further, the “decrease of TNF-alpha in knee joint tissue” value in the assay on TNF-alpha is given as “no effect”. The “reduction of MSU-induced knee joint edema” value in assay [2] was 32.6%. Further, in the assay on IL-10, the “increase of the expression of IL-10 in knee joint tissue” value worked out at 1.5 fold. Moreover, in assay [3], the “reduction of MSU-induced leukocyte recruitment” value was 1.6 fold. The “decrease of IL-6 in knee joint tissue” value in the assay on IL-6 is reported as “no effect”.

On to `COc1cc(O)cc(OC)c1C(=O)C=Cc1ccccc1` [HMC, 4′-hydroxy-2′6′-dimethoxychalcone], for which the “inhibition of IL-23 production” value with IL-23 [4] is “do not inhibit”.

In the case of `CC(C)=CCc1c(O)ccc(C(=O)/C=C/c2ccc(O)cc2)c1O` [IBC, Isobavachalcone], in the assay with IL-23 [4], the “inhibition of IL-23 production” value is “do not inhibit”.

With `CC(C)Cc1ccc(C(C)C(=O)O)cc1` (centres unmarked) [Ibuprofen, reference compound], the “reduction of IL-23 release in supernatant” value with IL-23 [1] (setting [5]) is 20-25%.

With `COc1cc(O)c(OC)c(O)c1C(=O)/C=C/c1ccccc1` [naturally isolated 2,4-D, 2′,4′-dihydroxy-3′,6′-dimethoxychalcone], the concentration for half-maximal inhibition (IC50) in the assay with IL-23 [4] (Homo sapiens, read-out: IC50 of inhibition of IL-23) was roughly 2100 nM.

Turning to Hydroxysafflor yellow A [HYA], the “inhibition of IL-23 production” value with IL-23 [4] is on record as “do not inhibit”.
